Columns and labels:
Mino cells [1] = test: cells; settings: Homo sapiens, 72 h, read-out: IC50, cell growth inhibition / cell viability, Mino cells, 72 h
Excerpt: The cell viabilities were quantified using an Alarma Blue assay.
Dataset represents an average of n=3 replicates.

[2] = Mouse S9 metabolic stability assay; format: in vitro ADME; settings: co-incubated with mouse liver S9 enzymes, LC-MS; read-out: t1/2 in mouse liver S9
Procedure: To verify the metabolic stability of PS-2, PS-2 was co-incubated with mouse liver S9 enzymes and LC-MS was used to test the remaining amount of PS-2 compound. DD-03-171 was used as a control (FIG. 11).

BTK = BTK (Homo sapiens, UniProt Q06187); test: Western blotting for BTK in Mino cells; format: cell-based; set-up: host or cells: Mino; settings: up to 1000 nM, 24 h, Western blot
Chain of BTK (Q06187 whole entry): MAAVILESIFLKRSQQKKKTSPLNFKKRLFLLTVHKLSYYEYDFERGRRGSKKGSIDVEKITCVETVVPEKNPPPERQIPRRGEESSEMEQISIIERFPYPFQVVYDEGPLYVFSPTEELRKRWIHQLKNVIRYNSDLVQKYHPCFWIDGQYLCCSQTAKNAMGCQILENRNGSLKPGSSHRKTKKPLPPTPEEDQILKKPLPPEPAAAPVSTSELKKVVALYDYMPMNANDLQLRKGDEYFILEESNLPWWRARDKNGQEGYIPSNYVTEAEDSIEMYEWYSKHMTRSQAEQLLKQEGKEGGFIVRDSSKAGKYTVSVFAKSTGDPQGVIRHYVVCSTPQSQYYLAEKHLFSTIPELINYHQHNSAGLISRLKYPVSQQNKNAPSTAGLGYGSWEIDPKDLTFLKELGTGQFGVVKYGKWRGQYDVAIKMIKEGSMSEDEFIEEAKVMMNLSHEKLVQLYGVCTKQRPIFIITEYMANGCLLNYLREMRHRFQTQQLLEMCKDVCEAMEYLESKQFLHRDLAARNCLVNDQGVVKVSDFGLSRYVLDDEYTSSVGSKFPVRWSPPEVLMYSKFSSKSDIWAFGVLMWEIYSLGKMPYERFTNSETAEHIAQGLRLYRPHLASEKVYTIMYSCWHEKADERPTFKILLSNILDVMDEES
Procedure: Mino cells were seeded into the wells of six-well plates at the density of 5×10^5 cells per mL in 2 mL of complete RPMI-1640 culture medium. After overnight adaptation, cells were treated with serially diluted compounds (from 1,000-1.6 nM, 5-fold dilution) for 24 hours. After treatment, whole cell lysates for immunoblotting were prepared by pelleting Mino cells at 4° C. and 200×g for 5 minutes. The resulting cell pellets were washed once with ice-cold PBS and lysed in 1×RIPA lysis buffer (Alfa Aesar, Cat. No. J62524) supplemented with protease and phosphatase inhibitor cocktail (Thermo Fisher, Cat. No. 78430). Lysates were centrifuged at 15,000×g for 10 min at 4° C. and protein concentrations were assessed using BCA assay (Pierce, Cat. No. 23225). Same amounts of protein (30 μg) for each sample were loaded onto sodium dodecyl sulfate-polyacrylamide gel, separated by electrophoresis (Bio-Rad) at 120 V for 1.5 h and transferred to PVDF membrane using a Transblot Turbo system (Bio-Rad). After blocking for 1 h at room temperature in 1% BSA-TBST, the membranes were immunoblotted with the specified primary antibodies at the dilution of 1:1000 in TBST (Cell Signaling Technology: anti-BTK Cat. No. 8547, anti-IKZF1 Cat. No. 14859, anti-IKZF3 Cat. No. 15103, anti-β-actin Cat. No. 4570, Proteintech: anti-GSPT1, Cat. No. 10763-1-AP) overnight at 4° C. and the HRP-conjugated secondary antibodies (Cell Signaling, Cat. No. 7074, 1:1000 in TBST) for 1 h at room temperature. Imaging was performed using the ECL Prime chemiluminescent Western blot detection reagents (Kindle Biosciences, Cat. No. R1100) by visualization of the blots with an Imager (Kindle Biosciences, Cat. No. D1001). All Western blots were subsequently processed and quantified with Imager software ImageJ and protein level was normalized to the B-actin loading controls.

BTK-Hibit [3] = target: T1, BTK-Hibit (Homo sapiens, UniProt Q06187); test: BTK degradation in BTK-Hibit knock-in Ramos cells; format: cell-based; settings: 24 hours
T1 construct: endogenous in cells; host or cells: Ramos (BTK-Hibit knock-in)
T1 sequence (Q06187 2-659 limits assumed): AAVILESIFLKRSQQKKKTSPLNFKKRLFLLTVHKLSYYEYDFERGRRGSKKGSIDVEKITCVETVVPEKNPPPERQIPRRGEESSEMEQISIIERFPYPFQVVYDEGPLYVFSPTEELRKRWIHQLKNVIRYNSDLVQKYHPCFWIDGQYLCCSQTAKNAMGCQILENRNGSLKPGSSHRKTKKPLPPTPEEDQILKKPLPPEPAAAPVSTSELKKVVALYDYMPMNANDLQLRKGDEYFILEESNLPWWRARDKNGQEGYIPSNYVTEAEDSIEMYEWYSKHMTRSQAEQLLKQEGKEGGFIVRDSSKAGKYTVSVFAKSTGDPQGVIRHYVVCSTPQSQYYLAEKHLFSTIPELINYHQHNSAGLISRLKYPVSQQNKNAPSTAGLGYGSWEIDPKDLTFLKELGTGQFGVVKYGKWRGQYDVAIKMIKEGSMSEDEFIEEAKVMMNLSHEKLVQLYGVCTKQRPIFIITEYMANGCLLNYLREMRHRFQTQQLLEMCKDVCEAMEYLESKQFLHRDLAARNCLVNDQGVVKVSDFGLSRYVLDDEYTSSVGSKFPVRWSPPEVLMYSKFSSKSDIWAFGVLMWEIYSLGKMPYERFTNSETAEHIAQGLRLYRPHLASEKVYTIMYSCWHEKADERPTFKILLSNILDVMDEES
T1 sequence (Q96SW2 whole entry, further chain): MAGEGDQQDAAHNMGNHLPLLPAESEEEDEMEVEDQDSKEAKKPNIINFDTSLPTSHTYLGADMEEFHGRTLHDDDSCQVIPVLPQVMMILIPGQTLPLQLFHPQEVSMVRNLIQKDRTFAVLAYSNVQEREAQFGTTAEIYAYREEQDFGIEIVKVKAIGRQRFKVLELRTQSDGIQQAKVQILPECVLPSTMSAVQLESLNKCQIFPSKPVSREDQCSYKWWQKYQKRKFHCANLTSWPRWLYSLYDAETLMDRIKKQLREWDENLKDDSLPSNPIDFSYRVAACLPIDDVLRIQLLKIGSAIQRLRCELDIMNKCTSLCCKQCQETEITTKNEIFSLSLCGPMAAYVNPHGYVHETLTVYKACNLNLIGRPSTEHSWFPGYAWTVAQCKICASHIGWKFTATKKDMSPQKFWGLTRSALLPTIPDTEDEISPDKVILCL
T1 sequence (Q16531 whole entry partner): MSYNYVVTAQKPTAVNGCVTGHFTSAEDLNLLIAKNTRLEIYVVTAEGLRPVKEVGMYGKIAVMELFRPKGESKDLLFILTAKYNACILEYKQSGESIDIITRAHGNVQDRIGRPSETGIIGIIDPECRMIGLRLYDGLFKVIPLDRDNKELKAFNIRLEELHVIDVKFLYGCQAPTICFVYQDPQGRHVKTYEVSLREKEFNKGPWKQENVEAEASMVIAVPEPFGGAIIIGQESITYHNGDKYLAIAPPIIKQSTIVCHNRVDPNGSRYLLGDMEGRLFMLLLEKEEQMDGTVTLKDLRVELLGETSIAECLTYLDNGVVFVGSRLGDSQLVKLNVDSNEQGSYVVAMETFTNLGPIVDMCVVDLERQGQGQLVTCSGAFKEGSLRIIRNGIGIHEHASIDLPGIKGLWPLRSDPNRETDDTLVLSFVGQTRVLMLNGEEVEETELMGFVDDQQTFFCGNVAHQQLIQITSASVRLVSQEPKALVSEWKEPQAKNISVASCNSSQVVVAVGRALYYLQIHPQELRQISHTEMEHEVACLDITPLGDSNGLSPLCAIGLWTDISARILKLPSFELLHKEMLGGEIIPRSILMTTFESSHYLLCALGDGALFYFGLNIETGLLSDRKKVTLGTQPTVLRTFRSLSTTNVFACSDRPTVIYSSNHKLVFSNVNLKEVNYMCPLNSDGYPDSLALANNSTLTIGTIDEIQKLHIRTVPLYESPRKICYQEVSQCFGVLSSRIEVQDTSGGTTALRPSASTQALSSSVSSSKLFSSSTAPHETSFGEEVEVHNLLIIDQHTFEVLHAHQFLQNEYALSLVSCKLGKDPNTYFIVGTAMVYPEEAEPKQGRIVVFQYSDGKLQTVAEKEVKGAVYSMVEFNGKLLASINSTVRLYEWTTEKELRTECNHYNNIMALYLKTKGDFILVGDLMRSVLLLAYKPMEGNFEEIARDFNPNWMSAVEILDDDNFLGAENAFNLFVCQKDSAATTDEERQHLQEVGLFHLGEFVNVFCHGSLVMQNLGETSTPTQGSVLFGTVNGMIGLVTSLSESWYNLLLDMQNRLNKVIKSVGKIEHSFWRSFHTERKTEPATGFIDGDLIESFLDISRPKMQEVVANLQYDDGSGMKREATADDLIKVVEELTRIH
Procedure: (§1) Ramos cells were treated with the indicated compounds at the indicated concentrations for 24 hours. Nurix and DD-03-171 were used as the controls.
(§2) To further illustrate the BTK degradation ability of PS-2, BTK-Hibit knock-in Ramos cells were treated with PS-2 for 24 hours, using Nurix and DD-03171 as controls (FIG. 6).

BTK-Hibit [4] = target: T2, BTK-Hibit (Homo sapiens, UniProt Q06187+Q96SW2); test: BTK degradation in BTK-Hibit knock-in Ramos cells; format: cell-based; settings: 24 hours
T2 construct: endogenous in cells; host or cells: Ramos (BTK-Hibit knock-in)
T2 sequence (Q06187 2-659 limits assumed): as the sequence (Q06187 2-659 limits assumed) above
T2 sequence (Q96SW2 whole entry): as the sequence (Q96SW2 whole entry, further chain) above
T2 sequence (Q16531 whole entry partner): as the sequence (Q16531 whole entry partner) above
Procedure: as §1, §2

Mino cells [5] = test: TMT-based quantitative proteomics in Mino cells, degradation specificity over the proteome; format: cell-based; settings: 200 nM, 4 h, >2,500 proteins
Procedure: Panel a. […] Panel b. […] Panel c. […] Panel d-e. […] Panel g.
Two million of Mino cells were treated with DMSO or 200 nM of PS-2 for 4 hours in biological triplicates and cells were harvested by centrifugation (200×g, 4° C., 5 min). Lysis buffer (100 mM Triethylammonium bicarbonate (TEAB, Thermo Fisher Scientific, Cat. No. 90114), 2% SDS) was added to the cell pellets and homogenized with a microtip sonicator (Branson) to achieve a cell lysate with a protein concentration of ˜2 mg mL^−1. Protein concentration was determined using BCA assay (Pierce, Cat. No. 23225) and normalized to 1 mg mL^−1. One hundred μg of protein for each sample were reduced and alkylated with 10 mM Tris(2-carboxyethyl) phosphine hydrochloride (TCEP, Sigma, Cat. No. C4706) and 17 mM iodoacetamide (IAA, Sigma, Cat. No. 16125-5G), followed by digestion with trypsin (1:20, enzyme: protein, Thermo Fisher Scientific, Cat. No. 90058) for 16 h shaking at 37° C. […]
Next, tandem mass tagging (TMT)-based quantitative proteomic profiling was performed to evaluate the degradation specificity of PS-2. […] Quantitative proteomics employing TMT chemical labeling coupled with LC/MS/MS enabled the detection of >2,500 unique proteins without fractionation (FIG. 4f). […]

**Q.** With `O=C1CCC(N2C(=O)c3cccc(NCC(=O)N4CCN(c5ccc(Nc6nccc(Oc7ccccc7)n6)cc5)CC4)c3C2=O)C(=O)N1` (stereo not drawn) [PS-2, 2-(2,6-Dioxopiperidin-3-yl)-4-((2-oxo-2-(4-(4-((4-phenoxypyrimidin-2-yl)amino)phenyl)piperazin-1-yl)ethyl)amino)isoindoline-1,3-dione] as the molecule, how does the IC50 (Mino cells [1]) read?
**A.** Its IC50 is 0.077 µM.

**Q.** And the half-life [2]?
**A.** Its half-life is roughly 20 min.

**Q.** What about the “BTK degradation (result in words)” value (BTK) of the same molecule?
**A.** The value was “potently induces BTK degradation”.

**Q.** What about the DC50 (BTK-Hibit [3]) of the same molecule?
**A.** The DC50 was 0.00375 µM.

**Q.** What about the Dmax (BTK-Hibit [4]) of the same molecule?
**A.** Its Dmax is 84.7%.

**Q.** And the “other proteins downregulated by at least 25% with statistical significance” value (Mino cells [5])?
**A.** The value was “No other proteins are downregulated”.
